Reference: ChEMBL document CHEMBL1139232, “Isothiazoloquinolones with enhanced antistaphylococcal activities against multidrug-resistant strains: effects of structural modifications at the 6-, 7-, and 8-positions” (J Med Chem, 2007)
Values after ≈ are worked out from the molar mass of the structure shown.

Columns and labels:
[1] = system: Staphylococcus aureus; experiment: Antibacterial activity against methicillin-resistant Staphylococcus aureus; format: functional
[2] = Cytotoxicity against human Hep2 cell line after 72 hrs; format: cell-based, HEp-2; details: Hep2 cells
[3] = Inhibition of Staphylococcus aureus topoisomerase 4 by decatenation assay
[4] = target: DNA gyrase (Staphylococcus aureus, UniProt P0A0K8+P20831); experiment: Inhibition of Staphylococcus aureus DNA gyrase by supercoiling assay; format: protein-complex assay
DNA gyrase, sequence (P0A0K8 whole entry): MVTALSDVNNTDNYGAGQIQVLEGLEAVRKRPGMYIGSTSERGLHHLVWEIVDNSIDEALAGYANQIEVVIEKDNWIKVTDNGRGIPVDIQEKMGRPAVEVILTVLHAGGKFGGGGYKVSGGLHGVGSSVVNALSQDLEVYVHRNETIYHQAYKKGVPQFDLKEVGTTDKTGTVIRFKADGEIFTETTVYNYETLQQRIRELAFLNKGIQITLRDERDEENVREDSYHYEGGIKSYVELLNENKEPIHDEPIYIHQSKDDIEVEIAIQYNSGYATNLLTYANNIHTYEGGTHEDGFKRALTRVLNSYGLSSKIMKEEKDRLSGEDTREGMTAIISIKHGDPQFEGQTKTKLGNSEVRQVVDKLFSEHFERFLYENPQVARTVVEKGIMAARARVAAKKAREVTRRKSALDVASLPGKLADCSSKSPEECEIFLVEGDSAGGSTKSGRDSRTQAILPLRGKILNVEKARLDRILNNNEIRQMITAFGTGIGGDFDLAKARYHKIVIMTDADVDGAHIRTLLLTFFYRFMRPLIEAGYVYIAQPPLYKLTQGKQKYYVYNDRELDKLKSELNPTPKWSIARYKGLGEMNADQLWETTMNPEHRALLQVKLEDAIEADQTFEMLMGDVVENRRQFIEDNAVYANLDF
DNA gyrase, sequence (P20831 whole entry): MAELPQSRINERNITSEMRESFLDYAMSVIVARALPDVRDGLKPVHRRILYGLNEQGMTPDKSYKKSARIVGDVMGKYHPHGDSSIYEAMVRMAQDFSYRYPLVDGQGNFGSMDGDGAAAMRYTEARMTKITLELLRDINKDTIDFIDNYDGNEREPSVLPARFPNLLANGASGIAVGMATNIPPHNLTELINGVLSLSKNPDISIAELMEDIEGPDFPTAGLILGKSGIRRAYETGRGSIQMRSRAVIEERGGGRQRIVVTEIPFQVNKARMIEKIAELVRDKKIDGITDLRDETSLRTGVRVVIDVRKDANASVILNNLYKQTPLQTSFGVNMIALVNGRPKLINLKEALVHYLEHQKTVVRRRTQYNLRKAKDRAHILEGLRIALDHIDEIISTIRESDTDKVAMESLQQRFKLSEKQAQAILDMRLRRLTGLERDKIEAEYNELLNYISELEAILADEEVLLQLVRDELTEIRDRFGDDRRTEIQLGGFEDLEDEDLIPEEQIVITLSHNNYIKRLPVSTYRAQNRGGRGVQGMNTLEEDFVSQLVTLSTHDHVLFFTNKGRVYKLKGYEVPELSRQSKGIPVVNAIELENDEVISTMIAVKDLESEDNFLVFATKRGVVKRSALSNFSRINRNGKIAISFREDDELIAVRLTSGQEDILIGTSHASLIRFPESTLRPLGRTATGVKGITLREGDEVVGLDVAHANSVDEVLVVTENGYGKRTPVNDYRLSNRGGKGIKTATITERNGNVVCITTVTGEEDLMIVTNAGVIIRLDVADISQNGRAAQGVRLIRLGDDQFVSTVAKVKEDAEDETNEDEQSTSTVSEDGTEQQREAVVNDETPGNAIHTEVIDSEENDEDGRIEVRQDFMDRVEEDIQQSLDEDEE

[5] = system: Staphylococcus aureus; experiment: Antibacterial activity against methicillin-sensitive Staphylococcus aureus; format: functional
[6] = system: Staphylococcus aureus; experiment: Antibacterial activity against fluoroquinolone-resistant Staphylococcus aureus 273/T/T/T; format: functional
[7] = Cytotoxicity against human HepG2 cells after 72 hrs; format: cell-based
[8] = system: Hepatocyte; experiment: Cytotoxicity against rat hepatocytes after 48 hrs; format: functional
[9] = target: DNA topoisomerase 2-alpha (Homo sapiens) (UniProt P11388)
DNA topoisomerase 2-alpha (Homo sapiens), sequence (P11388 whole entry): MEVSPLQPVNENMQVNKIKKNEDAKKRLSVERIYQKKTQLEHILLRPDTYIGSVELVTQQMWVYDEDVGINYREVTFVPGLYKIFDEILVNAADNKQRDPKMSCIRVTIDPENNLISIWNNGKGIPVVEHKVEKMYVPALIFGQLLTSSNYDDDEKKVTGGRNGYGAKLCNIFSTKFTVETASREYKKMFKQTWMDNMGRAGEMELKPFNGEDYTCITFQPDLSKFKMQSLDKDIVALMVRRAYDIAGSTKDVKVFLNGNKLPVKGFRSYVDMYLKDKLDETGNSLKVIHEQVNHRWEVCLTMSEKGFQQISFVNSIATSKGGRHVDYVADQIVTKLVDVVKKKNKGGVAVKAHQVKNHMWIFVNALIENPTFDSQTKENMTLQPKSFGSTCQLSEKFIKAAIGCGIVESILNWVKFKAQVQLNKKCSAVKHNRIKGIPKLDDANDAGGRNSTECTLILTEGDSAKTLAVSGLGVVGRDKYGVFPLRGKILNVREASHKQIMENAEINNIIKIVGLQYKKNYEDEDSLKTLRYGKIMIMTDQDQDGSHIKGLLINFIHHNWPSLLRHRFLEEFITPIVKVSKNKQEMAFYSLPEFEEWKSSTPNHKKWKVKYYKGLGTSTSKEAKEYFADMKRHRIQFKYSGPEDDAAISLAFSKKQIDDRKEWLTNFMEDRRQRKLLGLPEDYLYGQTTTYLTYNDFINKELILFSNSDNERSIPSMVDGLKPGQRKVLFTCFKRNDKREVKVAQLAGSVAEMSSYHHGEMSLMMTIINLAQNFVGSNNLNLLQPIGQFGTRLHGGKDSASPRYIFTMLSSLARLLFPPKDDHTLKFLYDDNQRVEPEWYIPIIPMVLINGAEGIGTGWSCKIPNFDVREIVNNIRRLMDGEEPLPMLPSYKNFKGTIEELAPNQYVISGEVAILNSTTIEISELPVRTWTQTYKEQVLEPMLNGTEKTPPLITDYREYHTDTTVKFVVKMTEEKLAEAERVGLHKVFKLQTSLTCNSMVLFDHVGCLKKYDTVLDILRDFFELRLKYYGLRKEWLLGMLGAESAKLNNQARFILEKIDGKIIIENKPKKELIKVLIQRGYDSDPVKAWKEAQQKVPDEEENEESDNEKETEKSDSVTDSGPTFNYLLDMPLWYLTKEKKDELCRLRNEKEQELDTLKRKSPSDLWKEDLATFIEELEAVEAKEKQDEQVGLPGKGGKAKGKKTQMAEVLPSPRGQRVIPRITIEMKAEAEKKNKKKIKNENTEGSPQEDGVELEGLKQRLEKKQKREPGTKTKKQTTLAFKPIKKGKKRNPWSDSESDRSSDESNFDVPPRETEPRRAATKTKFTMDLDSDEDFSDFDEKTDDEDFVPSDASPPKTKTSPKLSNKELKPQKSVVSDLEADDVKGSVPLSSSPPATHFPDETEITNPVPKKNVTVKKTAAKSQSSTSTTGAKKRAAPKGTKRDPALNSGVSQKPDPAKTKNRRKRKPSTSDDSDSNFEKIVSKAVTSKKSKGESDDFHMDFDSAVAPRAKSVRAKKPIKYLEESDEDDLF

[10] = system: Staphylococcus aureus; experiment: Antibacterial activity against Staphylococcus aureus; format: functional
[11] = system: Staphylococcus aureus; experiment: Antibacterial activity against vancomycin-sensitive Staphylococcus aureus F988633; format: functional
[12] = system: Staphylococcus aureus; experiment: Antibacterial activity against Staphylococcus aureus ATCC 33591 infected in CD1 mouse at 20 mg/kg, sc; format: functional; details: route subcutaneous
[13] = system: Staphylococcus aureus; experiment: Antibacterial activity against vancomycin intermediate-resistant Staphylococcus aureus F977218; format: functional
[14] = system: Staphylococcus aureus; experiment: Antibacterial activity against vancomycin intermediate-resistant Staphylococcus aureus F977210; format: functional
[15] = system: Staphylococcus aureus; experiment: Antibacterial activity against vancomycin-resistant Staphylococcus aureus F800236; format: functional
[16] = system: Staphylococcus aureus; experiment: Antibacterial activity against vancomycin-resistant Staphylococcus aureus F800238; format: functional
[17] = system: Staphylococcus aureus; experiment: Antibacterial activity against vancomycin intermediate-resistant Staphylococcus aureus F977215; format: functional
[18] = system: Staphylococcus aureus; experiment: Antibacterial activity against vancomycin intermediate-resistant Staphylococcus aureus F988644; format: functional
[19] = system: Staphylococcus aureus; experiment: Antibacterial activity against vancomycin intermediate-resistant Staphylococcus aureus F988647; format: functional
[20] = system: Staphylococcus aureus; experiment: Antibacterial activity against vancomycin intermediate-resistant Staphylococcus aureus F988650; format: functional
[21] = system: Staphylococcus aureus; experiment: Antibacterial activity against vancomycin intermediate-resistant Staphylococcus aureus F988653; format: functional
[22] = system: Staphylococcus aureus; experiment: Antibacterial activity against Staphylococcus aureus ATCC 33591 infected in CD1 mouse at 10 mg/kg, sc; format: functional; details: route subcutaneous

COc1c(-c2ccc3c(c2)CCNC3)ccc2c(=O)c3c(=O)[nH]sc3n(C3CC3)c12
MIC [1]: 4 µg/mL (≈ 9.54 µM)
CC50 at 72 h [2]: 89 µM

COc1c(-c2cc(C)nc(C)c2)ccc2c(=O)c3c(=O)[nH]sc3n(C3CC3)c12
MIC [1]: 1 µg/mL (≈ 2.54 µM)
CC50 at 72 h [2]: > 100 µM

CO/N=C1\CN(c2nc3c(cc2F)c(=O)c(C(=O)O)cn3C2CC2)CC1CN (stereo unspecified) [GEMIFLOXACIN]
MIC [1]: 2 µg/mL (≈ 5.14 µM)
CC50 at 72 h [2]: 46 µM
IC50 [3]: 0.3 µM
IC50 [4]: 5.6 µM
MIC [5]: 0.03 µg/mL (≈ 0.077 µM)
MIC [6]: 4 µg/mL (≈ 10.3 µM)
CC50 at 72 h [7]: 35 µM
CC50 [8]: > 100 µM
EC2 [9]: > 150 µM

CC(=O)NC[C@H]1CN(c2ccc(N3CCOCC3)c(F)c2)C(=O)O1 [LINEZOLID]
MIC50 [1]: 2 µg/mL (≈ 5.93 µM)
MIC90 [1]: 2 µg/mL (≈ 5.93 µM)
MIC50 [10]: 2 µg/mL (≈ 5.93 µM)
MIC90 [10]: 2 µg/mL (≈ 5.93 µM)
MIC [11]: > 16 µg/mL
Log10 cfu [12]: 0.2

CN[C@H](CC(C)C)C(=O)N[C@H]1C(=O)N[C@@H](CC(N)=O)C(=O)N[C@H]2C(=O)N[C@H]3C(=O)N[C@H](C(=O)N[C@H](C(=O)O)c4cc(O)cc(O)c4-c4cc3ccc4O)[C@H](O)c3ccc(c(Cl)c3)Oc3cc2cc(c3O[C@@H]2O[C@H](CO)[C@@H](O)[C@H](O)[C@H]2O[C@H]2C[C@](C)(N)[C@H](O)[C@H](C)O2)Oc2ccc(cc2Cl)[C@H]1O [VANCOMYCIN]
MIC [13]: 8 µg/mL (≈ 5.52 µM)
MIC50 [1]: 1 µg/mL (≈ 0.69 µM)
MIC90 [1]: 8 µg/mL (≈ 5.52 µM)
MIC [14]: 8 µg/mL (≈ 5.52 µM)
MIC [15]: > 32 µg/mL
MIC [16]: > 32 µg/mL
MIC50 [10]: 1 µg/mL (≈ 0.69 µM)
MIC90 [10]: 8 µg/mL (≈ 5.52 µM)
MIC [17]: 8 µg/mL (≈ 5.52 µM)
MIC [18]: 8 µg/mL (≈ 5.52 µM)
MIC [19]: 8 µg/mL (≈ 5.52 µM)
MIC [20]: 8 µg/mL (≈ 5.52 µM)
MIC [21]: 8 µg/mL (≈ 5.52 µM)
Log10 cfu [22]: 0.31

COc1c(-c2ccc3c(c2)CCNC3)c(F)cc2c(=O)c3c(=O)[nH]sc3n(C3CC3)c12
MIC [1]: 2 µg/mL (≈ 4.57 µM)
CC50 at 72 h [2]: 57 µM

COc1c(-c2ccc3cnccc3c2)c(F)cc2c(=O)c3c(=O)[nH]sc3n(C3CC3)c12
MIC [1]: 0.12 µg/mL (≈ 0.277 µM)
CC50 at 72 h [2]: 39 µM

COc1c(-c2ccc3cnccc3c2)ccc2c(=O)c3c(=O)[nH]sc3n(C3CC3)c12
MIC [1]: 0.12 µg/mL (≈ 0.289 µM)
CC50 at 72 h [2]: 45 µM

COc1c(-c2ccncc2)c(F)cc2c(=O)c3c(=O)[nH]sc3n(C3CC3)c12
MIC [1]: 1 µg/mL (≈ 2.61 µM)
CC50 at 72 h [2]: > 100 µM

O=C(O)c1cn(C2CC2)c2cc(N3CCNCC3)c(F)cc2c1=O [CIPROFLOXACIN]
MIC [1]: 32 µg/mL (≈ 96.6 µM)
CC50 at 72 h [2]: > 100 µM
IC50 [3]: 1 µM
MIC [5]: 0.25 µg/mL (≈ 0.754 µM)
CC50 at 72 h [7]: > 100 µM
EC2 [9]: > 150 µM

COc1c(-c2ccc3c(c2)CNC3)c(F)cc2c(=O)c3c(=O)[nH]sc3n(C3CC3)c12
MIC [1]: 0.5 µg/mL (≈ 1.18 µM)
MIC50 [1]: 0.5 µg/mL (≈ 1.18 µM)
MIC90 [1]: 2 µg/mL (≈ 4.72 µM)
CC50 at 72 h [2]: 19 µM
MIC50 [10]: 0.5 µg/mL (≈ 1.18 µM)
MIC90 [10]: 1 µg/mL (≈ 2.36 µM)
IC50 [3]: 0.1 µM
IC50 [4]: 2 µM
MIC [5]: 0.008 µg/mL (≈ 0.0189 µM)
MIC [6]: 0.5 µg/mL (≈ 1.18 µM)
CC50 at 72 h [7]: 35 µM
CC50 [8]: 75 µM
EC2 [9]: 75 µM

COc1c(-c2ccc3c(c2)CN[C@@H]3C)ccc2c(=O)c3c(=O)[nH]sc3n(C3CC3)c12
MIC [1]: 2 µg/mL (≈ 4.77 µM)
CC50 at 72 h [2]: 33 µM

COc1c(-c2ccc3c(c2)CCN(C)C3)c(F)cc2c(=O)c3c(=O)[nH]sc3n(C3CC3)c12
MIC [1]: 4 µg/mL (≈ 8.86 µM)
CC50 at 72 h [2]: 61 µM

O=c1[nH]sc2c1c(=O)c1cc(F)c(-c3ccncc3)nc1n2C1CC1
MIC [1]: 2 µg/mL (≈ 5.64 µM)
CC50 at 72 h [2]: > 100 µM
